Structures can show the parent of a compound that is named as a salt.
biological target: human σ1 receptor (Homo sapiens, UniProt Q99720); assay: biochemical; format: binding; design: μ and σ1 dual binding: key to the marks not given beside the values; settings: not given
Sequence (Q99720 whole entry): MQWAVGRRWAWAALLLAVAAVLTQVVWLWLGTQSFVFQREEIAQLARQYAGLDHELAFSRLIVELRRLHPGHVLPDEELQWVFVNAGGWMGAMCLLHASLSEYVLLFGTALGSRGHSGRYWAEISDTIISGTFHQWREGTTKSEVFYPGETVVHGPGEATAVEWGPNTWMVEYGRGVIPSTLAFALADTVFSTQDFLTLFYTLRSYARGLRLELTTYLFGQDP

SMILES	Ki	μ and σ1 dual binding
COc1cccc(CCN2CCC3(CC2)CN(c2ccccc2)C(=O)C(C)O3)n1 (centres unmarked) [Example 102, 9-(2-(6-methoxypyridin-2-yl)ethyl)-2-methyl-4-phenyl-1-oxa-4,9-diazaspiro[5.5]undecan-3-one hydrochloride]	< 500 nM	–
COCCCC1OC2(CCN(CCc3ccccc3)CC2)CN(c2ccccc2F)C1=O (centres unmarked) [Example 314, 4-(2-fluorophenyl)-2-(3-methoxypropyl)-9-phenethyl-1-oxa-4,9-diazaspiro[5.5]undecan-3-one hydrochloride]	< 500 nM	–
CC1OC2(CCN(CCn3ccc4ccccc43)CC2)CN(c2ccccc2)C1=O (centres unmarked) [Example 62, 9-(2-(1H-indol-1-yl)ethyl)-2-methyl-4-phenyl-1-oxa-4,9-diazaspiro[5.5]undecan-3-one hydrochloride]	< 100 nM	–
CC1OC2(CCN(Cc3ccccc3)CC2)CN(c2ccccc2)C1=O.Cl (centres unmarked) [Example 16, 9-benzyl-2-methyl-4-phenyl-1-oxa-4,9-diazaspiro[5.5]undecan-3-one hydrochloride]	–	++
CC1OC2(CCN(CCc3ccccc3)CC2)CN(c2ccc3c(c2)OCO3)C1=O (centres unmarked) [Example 202, 4-(benzo[d][1,3]dioxol-5-yl)-2-methyl-9-phenethyl-1-oxa-4,9-diazaspiro[5.5]undecan-3-one hydrochloride]	< 500 nM	–
CC1OC2(CCN(CCc3cccc(F)n3)CC2)CN(c2ccccc2F)C1=O (centres unmarked) [Example 89, 4-(2-fluorophenyl)-9-(2-(6-fluoropyridin-2-yl)ethyl)-2-methyl-1-oxa-4,9-diazaspiro[5.5]undecan-3-one hydrochloride]	< 500 nM	–
CC1OC2(CCN(CCc3ccccc3)CC2)CN(c2nc3ccccc3s2)C1=O.Cl (centres unmarked) [Example 204, 4-(benzo[d]thiazol-2-yl)-2-methyl-9-phenethyl-1-oxa-4,9-diazaspiro[5.5]undecan-3-one hydrochloride]	–	++
Cl.O=C1COC2(CCN(CCc3ccccc3)C2)CN1c1ccccc1 (centres unmarked) [Example 149, 2-phenethyl-9-phenyl-6-oxa-2,9-diazaspiro[4.5]decan-8-one hydrochloride]	–	++
CC1OC2(CCN(CCc3ccccc3)CC2)CN(Cc2cccc(C(F)(F)F)n2)C1=O (centres unmarked) [Example 174, 2-methyl-9-phenethyl-4-((6-(trifluoromethyl)pyridin-2-yl)methyl)-1-oxa-4,9-diazaspiro[5.5]undecan-3-one hydrochloride]	< 100 nM	–
CC1OC2(CCN(CCc3ccccc3NS(C)(=O)=O)CC2)CN(c2ccccc2)C1=O (centres unmarked) [Example 257, N-(2-(2-(2-methyl-3-oxo-4-phenyl-1-oxa-4,9-diazaspiro[5.5]undecan-9-yl)ethyl)phenyl)methanesulfonamide]	< 500 nM	–
CC1OC2(CCN(CCc3ccccc3)CC2)CN(c2ccccc2O)C1=O (centres unmarked) [Example 296, 4-(2-hydroxyphenyl)-2-methyl-9-phenethyl-1-oxa-4,9-diazaspiro[5.5]undecan-3-one]	–	++
O=C1C(=CC2CCOCC2)OC2(CCN(CCc3ccccc3)CC2)CN1c1ccccc1F [Example 80, 4-(2-fluorophenyl)-9-phenethyl-2-((tetrahydro-2H-pyran-4-yl)methylene)-1-oxa-4,9-diazaspiro[5.5]undecan-3-one]	< 500 nM	–

same assay, conditions: combined class from Ki-σ1 (human σ1 receptor, A1) and Ki-μ (human μ-opioid receptor, A2) radioligand binding

SMILES	μ and σ1 dual binding
COc1cccc(N2CC3(CCN(CCc4ccccc4)CC3)OCC2=O)c1 [Example 8, 4-(3-methoxyphenyl)-9-phenethyl-1-oxa-4,9-diazaspiro[5.5]undecan-3-one]	++
CC1OC2(CCN(CCc3ccccc3)CC2)CN(c2cnn(C)c2)C1=O (centres unmarked) [Example 210, 2-methyl-4-(1-methyl-1H-pyrazol-4-yl)-9-phenethyl-1-oxa-4,9-diazaspiro[5.5]undecan-3-one]	++
O=C1C(CO)OC2(CCN(CCc3ccccc3O)CC2)CN1c1ccccc1F (centres unmarked) [Example 301, 4-(2-fluorophenyl)-2-(hydroxymethyl)-9-(2-hydroxyphenethyl)-1-oxa-4,9-diazaspiro[5.5]undecan-3-one]	++

same assay, conditions: read-out: μ and σ1 dual binding

SMILES	Ki
CC(C)C1OC2(CCN(CCc3csc(NC(=O)OC(C)(C)C)n3)CC2)CN(c2ccccc2F)C1=O (centres unmarked) [Example 117, tert-butyl (4-(2-(4-(2-fluorophenyl)-2-isopropyl-3-oxo-1-oxa-4,9-diazaspiro[5.5]undecan-9-yl)ethyl)thiazol-2-yl)carbamate]	> 500 nM
Nc1cccc(CN2CC3(CCN(CCc4ccccc4)CC3)OCC2=O)c1 [Example 233, 4-(3-aminobenzyl)-9-phenethyl-1-oxa-4,9-diazaspiro[5.5]undecan-3-one hydrochloride]	< 500 nM
CC1OC2(CCN(CCc3ncccn3)CC2)CN(c2ccccc2)C1=O (centres unmarked) [Example 26, 2-methyl-4-phenyl-9-(2-(pyrimidin-2-yl)ethyl)-1-oxa-4,9-diazaspiro[5.5]undecan-3-one hydrochloride]	> 500 nM
CC1OC2(CCN(CCc3ccc(C#N)cn3)CC2)CN(c2ccccc2)C1=O (centres unmarked) [Example 36, 6-(2-(2-methyl-3-oxo-4-phenyl-1-oxa-4,9-diazaspiro[5.5]undecan-9-yl)ethyl)nicotinonitrile hydrochloride]	> 500 nM
CC1OC2(CCN(CCc3ccccc3)CC2)CN(Cc2ccccc2)C1=O (centres unmarked) [Example 152, 4-benzyl-2-methyl-9-phenethyl-1-oxa-4,9-diazaspiro[5.5]undecan-3-one hydrochloride]	< 100 nM
C[C@H]1OC2(CCN(CCc3ccccc3)CC2)CN(c2ccccc2)C1=O [Example 10a, (R)-2-methyl-9-phenethyl-4-phenyl-1-oxa-4,9-diazaspiro[5.5]undecan-3-one]	< 100 nM
CC(=O)Nc1ccc(CCN2CCC3(CC2)CN(c2ccccc2)C(=O)C(C)O3)nc1 (centres unmarked) [Example 252, N-(6-(2-(2-methyl-3-oxo-4-phenyl-1-oxa-4,9-diazaspiro[5.5]undecan-9-yl)ethyl)pyridin-3-yl)acetamide]	> 500 nM
CC1OC2(CCN(CCc3ccccc3)CC2)CN(c2cccnc2C(F)(F)F)C1=O (centres unmarked) [Example 215, 2-methyl-9-phenethyl-4-(2-(trifluoromethyl)pyridin-3-yl)-1-oxa-4,9-diazaspiro[5.5]undecan-3-one hydrochloride]	< 500 nM
CC1OC2(CCN(CCc3ccc(C(F)(F)F)cn3)CC2)CN(c2ccccc2)C1=O (centres unmarked) [Example 34, 2-methyl-4-phenyl-9-(2-(5-(trifluoromethyl)pyridin-2-yl)ethyl)-1-oxa-4,9-diazaspiro[5.5]undecan-3-one hydrochloride]	> 500 nM
COc1cccc(CN2CC3(CCN(CCc4ccccc4)CC3)OCC2=O)c1 [Example 166, 4-(3-methoxybenzyl)-9-phenethyl-1-oxa-4,9-diazaspiro[5.5]undecan-3-one hydrochloride]	< 500 nM
O=C1C(COCc2ccccc2)OC2(CCN(CCc3ccccc3)CC2)CN1c1ccccc1 (centres unmarked) [Example 19, 2-((benzyloxy)methyl)-9-phenethyl-4-phenyl-1-oxa-4,9-diazaspiro[5.5]undecan-3-one hydrochloride]	< 100 nM
CC1OC2(CCN(CCc3ccc([N+](=O)[O-])cc3)CC2)CN(c2ccccc2)C1=O (centres unmarked) [Example 66, 2-methyl-9-(4-nitrophenethyl)-4-phenyl-1-oxa-4,9-diazaspiro[5.5]undecan-3-one]	> 500 nM
CC(C)=C1OC2(CCN(CCc3ccccc3)CC2)CN(c2ccccc2F)C1=O [Example 85, 4-(2-fluorophenyl)-9-phenethyl-2-(propan-2-ylidene)-1-oxa-4,9-diazaspiro[5.5]undecan-3-one]	> 500 nM
Nc1cccc(CCN2CCC3(CC2)CN(Cc2ccc(C(F)(F)F)cn2)C(=O)C2(CC2)O3)c1 [Example 239, 8-(3-aminophenethyl)-12-{[5-(trifluoromethyl)pyridin-2-yl]methyl}-4-oxa-8,12-diazadispiro[2.1.5.3]tridecan-13-one]	> 500 nM
CC1OC2(CCN(CCn3nccc3NC(=O)OC(C)(C)C)CC2)CN(c2ccccc2)C1=O (centres unmarked) [Example 116, tert-butyl (1-(2-(2-methyl-3-oxo-4-phenyl-1-oxa-4,9-diazaspiro[5.5]undecan-9-yl)ethyl)-1H-pyrazol-5-yl)carbamate]	> 500 nM
CS(=O)(=O)Nc1cccc(CN2CC3(CCN(CCc4ccccc4)CC3)OCC2=O)c1 [Example 259, N-(3-((3-oxo-9-phenethyl-1-oxa-4,9-diazaspiro[5.5]undecan-4-yl)methyl)phenyl)methanesulfonamide hydrochloride]	> 500 nM
CC1OC2(CCN(CCc3cn[nH]c3)CC2)CN(c2ccccc2)C1=O (centres unmarked) [Example 147, 9-(2-(1H-pyrazol-4-yl)ethyl)-2-methyl-4-phenyl-1-oxa-4,9-diazaspiro[5.5]undecan-3-one]	> 500 nM
CC1OC2(CCN(CCc3ccccc3)CC2)CN(c2ccccc2Cl)C1=O (centres unmarked) [Example 193, 4-(2-chlorophenyl)-2-methyl-9-phenethyl-1-oxa-4,9-diazaspiro[5.5]undecan-3-one hydrochloride]	< 100 nM
COC[C@@H]1OC2(CCN(CCc3ccccc3)CC2)CN(c2ccccc2)C1=O [Example 12a, (S)-2-(methoxymethyl)-9-phenethyl-4-phenyl-1-oxa-4,9-diazaspiro[5.5]undecan-3-one]	< 500 nM
CC1OC2(CCN(CCc3ccccc3)CC2)CN(Cc2ccncc2)C1=O (centres unmarked) [Example 162, 2-methyl-9-phenethyl-4-(pyridin-4-ylmethyl)-1-oxa-4,9-diazaspiro[5.5]undecan-3-one]	< 500 nM
CC1OC2(CCN(CCc3ncccc3[N+](=O)[O-])CC2)CN(c2ccccc2F)C1=O (centres unmarked) [Example 25, 4-(2-fluorophenyl)-2-methyl-9-(2-(3-nitropyridin-2-yl)ethyl)-1-oxa-4,9-diazaspiro[5.5]undecan-3-one]	> 500 nM
O=C1N(c2cnccc2C(F)(F)F)CC2(CCN(CCc3cc(F)ccc3F)CC2)OC12CC2 [Example 342, 8-(2,5-difluorophenethyl)-12-(4-(trifluoromethyl)pyridin-3-yl)-4-oxa-8,12-diazadispiro[2.1.5.3]tridecan-13-one]	< 500 nM
CC1OC2(CCN(CCc3ccccc3[N+](=O)[O-])CC2)CN(c2ccccc2)C1=O (centres unmarked) [Example 68, 2-methyl-9-(2-nitrophenethyl)-4-phenyl-1-oxa-4,9-diazapspiro[5.5]undecan-3-one]	> 500 nM
